Data: article PMC7933930, “Development of a small molecule that corrects misfolding and increases secretion of Z α1‐antitrypsin” (EMBO Molecular Medicine, 2021)

How the values were obtained:
neuroserpin = neuroserpin (Homo sapiens, UniProt Q99574); assay: Inhibitory activity of neuroserpin against trypsin; assay type: biochemical
Procedure: Figure 5 The effect of GSK716 on serpin inhibitory activity • α1‐Antitrypsin was incubated at varying molar ratios with the model protease bovine α‐chymotrypsin, and the residual protease activity determined. The intercept of the regression with the abscissa reflects the number of molecules of α1‐antitrypsin required to inhibit one molecule of chymotrypsin in the presence (+c) and absence (−c) of 50µM GSK716. Error bars reflect ± SEM of three independent experiments. • M α1‐antitrypsin was incubated with different molar ratios of chymotrypsin and resolved by SDS–PAGE. The position of covalent α1‐antitrypsin‐chymotrypsin complex (cpx), native (nat) and cleaved (clv) is shown. • The inhibitory activity of α1‐antichymotrypsin against chymotrypsin (ach + chym), neuroserpin against trypsin (neus + tryp), and antithrombin against thrombin (atiii + thrombin) was determined in the presence and absence of GSK716. Error bars reflect ± SD of two independent experiments.
GSK716 selectivity and PK properties were profiled in order to investigate the suitability of GSK716 for progression into in vivo studies and the potential for taking it forward as a clinical candidate for testing in humans. Since GSK716 results in loss of inhibitory activity of α1‐antitrypsin, the effect of the compound was assessed on other closely related serpins. […]

Adrenergic α2C = Adrenergic α2C (Homo sapiens, UniProt P18825); assay: Off‐target panel: Adrenergic α2C; assay type: cell-based
Procedure: (§1) GSK716 selectivity and PK properties were profiled in order to investigate the suitability of GSK716 for progression into in vivo studies and the potential for taking it forward as a clinical candidate for testing in humans. Since GSK716 results in loss of inhibitory activity of α1‐antitrypsin, the effect of the compound was assessed on other closely related serpins. […] Furthermore, there were no off‐target effects in a panel of assays considered predictive of known safety liabilities that precluded further development of GSK716 (Table EV1).

[1] = test system: Z α1‐antitrypsin in CHO‐K1 Tet‐On cells; assay: Pulse‐chase of Z α1‐antitrypsin in CHO‐K1 Tet‐On cells; assay type: cell-based; conditions: 10 μM GSK716
Procedure: Figure 2 GSK716 inhibits polymerisation of Z α1‐antitrypsin in cell models of disease • A GSK716 was added to CHO‐TET‐ON‐Z‐A1AT cells (Ordóñez et al, 2013) with simultaneous induction of Z α1‐antitrypsin expression using doxycycline, and polymer load was quantified with the 2C1 monoclonal antibody that is specific to pathological polymers of α1‐antitrypsin (Miranda et al, 2010). […] Data were normalised to vehicle and a control compound from the GSK716 series at saturating concentration. […] It induced an approximately threefold increase in secreted levels of Z α1‐antitrypsin compared with vehicle control. This was apparent even after polymers had been allowed to form. Scale bar: 100 µm. Data presented as mean ± SD, n = 8 (secretion) and n = 6 (polymer inhibition). • E CHO tetracycline‐inducible cells expressing Z α1‐antitrypsin were induced with 0.5 μg/ml doxycycline for 48 h and treated with 10 μM GSK716. […] For every time point, NP‐40‐soluble and NP‐40‐insoluble fractions were separated and immunoprecipitated with the 2C1 mAb and resolved by 4–12% w/v SDS–PAGE and α1‐antitrypsin detected by immunoblotting. […] Cell viability was measured by Cell Counting Kit‐8. […] Samples were resolved by 4–12% w/v acrylamide SDS–PAGE and detected by autoradiography. • H The graphs show the effect of GSK716 on intracellular and extracellular Z α1‐antitrypsin (mean ± SEM, n = 2). […]

PI3Kg = PI3Kg (Homo sapiens, UniProt P48736); assay: Off‐target panel: PI3Kg; assay type: biochemical; conditions: Inhibition, read-out: Mean (PXC50)
Procedure: as §1

Vasopressin V1a = Vasopressin V1a (Homo sapiens, UniProt P37288); assay: Off‐target panel: Vasopressin V1a; assay type: cell-based; conditions: Antagonist, read-out: Mean (PXC50) (converted)
Procedure: as §1

[2] = Oral pharmacokinetics in rat; assay type: in vivo; conditions: Han Wistar, whole blood, ≤ 3 mg/kg, read-out: F (oral bioavailability)
Procedure: […] Blood samples were taken into EDTA, diluted and mixed with acetonitrile containing internal standard (alprazolam) and centrifuged to precipitate proteins. Aliquots of the resultant supernatant were analysed by LC‐MS/MS, and concentrations of GSK716 in blood were determined. Non‐compartmental pharmacokinetic analysis (NCA) was carried out using Phoenix WinNonLin 6.3 (Certara L.P.). Free drug was measured in Z α1‐antitrypsin transgenic mice by dialysing tissue samples in rapid equilibrium dialysis cassettes.

Sequence of Vasopressin V1a (P37288 whole entry): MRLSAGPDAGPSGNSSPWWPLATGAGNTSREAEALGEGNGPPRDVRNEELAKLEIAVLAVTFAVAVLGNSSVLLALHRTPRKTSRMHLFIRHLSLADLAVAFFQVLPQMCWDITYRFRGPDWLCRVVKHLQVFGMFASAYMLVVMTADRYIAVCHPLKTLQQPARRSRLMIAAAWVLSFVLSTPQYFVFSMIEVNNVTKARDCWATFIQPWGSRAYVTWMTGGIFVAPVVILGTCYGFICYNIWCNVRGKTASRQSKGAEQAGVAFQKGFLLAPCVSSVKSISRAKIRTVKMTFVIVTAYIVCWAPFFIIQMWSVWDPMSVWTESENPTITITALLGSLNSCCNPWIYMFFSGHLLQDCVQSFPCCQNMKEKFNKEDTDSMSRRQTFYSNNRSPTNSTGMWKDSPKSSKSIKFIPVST
Sequence of neuroserpin (Q99574 17-410, species assumed): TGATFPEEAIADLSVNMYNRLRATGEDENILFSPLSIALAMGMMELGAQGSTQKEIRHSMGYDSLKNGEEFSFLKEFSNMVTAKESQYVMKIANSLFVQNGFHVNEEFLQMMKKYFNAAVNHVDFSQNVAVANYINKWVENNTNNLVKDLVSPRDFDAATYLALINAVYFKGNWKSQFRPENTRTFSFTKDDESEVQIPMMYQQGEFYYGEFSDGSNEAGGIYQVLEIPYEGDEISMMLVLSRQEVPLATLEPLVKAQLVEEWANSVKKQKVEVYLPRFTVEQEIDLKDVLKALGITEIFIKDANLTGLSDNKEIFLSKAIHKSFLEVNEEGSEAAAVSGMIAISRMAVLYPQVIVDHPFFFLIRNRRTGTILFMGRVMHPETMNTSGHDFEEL
Sequence of Adrenergic α2C (P18825 whole entry): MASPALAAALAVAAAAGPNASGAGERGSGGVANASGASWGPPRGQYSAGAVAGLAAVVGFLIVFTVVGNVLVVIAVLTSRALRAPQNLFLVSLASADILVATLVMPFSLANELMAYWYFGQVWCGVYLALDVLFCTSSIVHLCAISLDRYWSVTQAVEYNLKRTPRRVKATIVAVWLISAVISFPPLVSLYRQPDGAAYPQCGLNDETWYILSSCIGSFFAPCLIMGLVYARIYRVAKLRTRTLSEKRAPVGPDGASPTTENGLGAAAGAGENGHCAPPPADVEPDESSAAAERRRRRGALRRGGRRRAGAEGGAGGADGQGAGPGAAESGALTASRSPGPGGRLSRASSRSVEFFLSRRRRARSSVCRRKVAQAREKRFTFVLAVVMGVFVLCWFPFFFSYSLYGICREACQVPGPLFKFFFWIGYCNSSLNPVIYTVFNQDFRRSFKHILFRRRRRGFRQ
Sequence of PI3Kg (P48736 whole entry): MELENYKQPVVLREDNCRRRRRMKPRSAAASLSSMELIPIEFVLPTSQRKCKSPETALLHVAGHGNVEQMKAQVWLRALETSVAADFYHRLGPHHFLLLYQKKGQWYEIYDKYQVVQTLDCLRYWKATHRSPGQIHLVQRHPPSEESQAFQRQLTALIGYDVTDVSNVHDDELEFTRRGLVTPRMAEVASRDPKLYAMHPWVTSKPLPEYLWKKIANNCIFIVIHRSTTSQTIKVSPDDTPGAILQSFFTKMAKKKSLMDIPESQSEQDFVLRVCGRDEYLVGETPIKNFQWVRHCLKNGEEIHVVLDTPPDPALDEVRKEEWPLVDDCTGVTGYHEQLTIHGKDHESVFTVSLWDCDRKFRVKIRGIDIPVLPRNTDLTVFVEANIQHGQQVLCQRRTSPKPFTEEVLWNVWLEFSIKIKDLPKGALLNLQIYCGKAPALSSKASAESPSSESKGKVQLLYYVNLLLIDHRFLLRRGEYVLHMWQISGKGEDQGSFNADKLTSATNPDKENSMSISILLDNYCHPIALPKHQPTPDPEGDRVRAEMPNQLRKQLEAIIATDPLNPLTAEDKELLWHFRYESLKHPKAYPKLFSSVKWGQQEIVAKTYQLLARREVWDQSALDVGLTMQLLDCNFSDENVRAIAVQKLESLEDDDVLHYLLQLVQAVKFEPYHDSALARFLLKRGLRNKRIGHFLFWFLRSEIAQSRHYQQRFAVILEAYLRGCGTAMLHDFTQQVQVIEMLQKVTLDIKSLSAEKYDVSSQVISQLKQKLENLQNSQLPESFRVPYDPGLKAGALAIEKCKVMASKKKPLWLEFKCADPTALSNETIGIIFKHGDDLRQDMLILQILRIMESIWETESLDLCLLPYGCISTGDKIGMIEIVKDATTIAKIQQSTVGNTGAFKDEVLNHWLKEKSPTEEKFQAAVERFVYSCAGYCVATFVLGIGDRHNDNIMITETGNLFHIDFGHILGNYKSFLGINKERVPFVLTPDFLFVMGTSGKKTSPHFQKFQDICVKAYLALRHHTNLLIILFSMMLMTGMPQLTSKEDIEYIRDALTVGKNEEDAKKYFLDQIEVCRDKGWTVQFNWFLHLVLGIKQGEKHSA

For `CCC[C@@H](NC(=O)c1cccc2c1CC(=O)N2)[C@@H](O)c1cccc(F)c1C` [GSK716], the “inhibitory activity of neuroserpin towards its cognate protease” value (neuroserpin) was “did not affect”, the EC50 (Adrenergic α2C) was greater than 100 µM and the “intracellular polymers, clearance and secretion in pulse‐chase” value [1] was “abolished intracellular polymers”. For the same molecule, the IC50 (PI3Kg) was greater than 31.6 µM, the IC50 (Vasopressin V1a) was 39.8 µM and the bioavailability [2] was 48%.
